“And” between values parts separate entries of the source, which are not always exact repeats. Equal entries are not always repeated.
Assays:
[1] = tested on: cultured PBMCs of the allergic donors; test: ELISPOT of IL-5 or IFNg production by cultured PBMCs of TG allergic donors in response to peptide; assay type: cell-based, human
Source text: Table 1 indicates for each of the 397 PG+ peptides in which non-grass pollen species a matching peptide with either less than 3, less than 2 or zero mismatches are found. The number of TG grass allergic donors (n=20) with an in vitro T cell response to the TG peptide sequence is also shown.
A set of 93 proteins from Timothy grass (TG) pollen and the assembly of 822 peptides (15 mers) predicted to promiscuously bind HLA class II molecules shown in Table 9 and the immune reactivity in allergic donors have been reported in PCT application WO 2013/119863. […] Immune reactivity was determined by the production of IL-5 or IFNg from cultured PBMCs of the allergic donors in response to stimulation with a peptide and IL-5 and IFNg were measured by ELISPOT as described in Oseroff C et al, 2010.
In short, T cell immune reactivity was determined using PBMCs isolated from study participants and stored in liquid nitrogen until further use. For experimental testing, PBMCs were thawed and expanded in vitro with TG pollen extract (50 μg/mL) or the peptide pool ([…]). The TG extract and peptide pools had each been previously titrated to determine optimal stimulation concentrations.
Cytokine production by cultured PBMCs in response to antigen stimulation was measured by ELISPOT. Cells (1×10^5 cells/well) were plated and incubated with peptide (10 μg/mL), the peptide pool (5 μg/mL), or the TG extract (50 μg/mL). Phytohaemagglutinin (10 μg/mL) and medium alone were used as positive and negative controls, respectively. Samples were considered to produce a cytokine if 100 spot-forming cells (SFCs)/10^6 PBMCs were detected, with P .05 and a stimulation index of 2 or more. Criteria for individual peptides were the same except that a minimum of 20 SFCs were required for a sample to be counted as positive.
Table 3 lists the 397 PG+ peptides and indicates for each non-grass pollen species whether a matching peptide with either less than 3, less than 2 or zero mismatches could be detected. The immune reactivity of the TG peptide was assessed as the number of TG grass allergic donors (n=20) having in vitro T cell response against the TG peptide.

[2] = tested on: PBMCs from Phl p reactive donors; test: Cross-reactivity: IL-5 ELISPOT of PBMCs expanded 14 days with individual peptides, response to pollen extracts; assay type: cell-based, human; settings: for Ant o % Reactivity: Ant o (grass) pollen extract; for Ant o % Reactivity / Bet v % Reactivity / Cyn d % Reactivity / Poa p % Reactivity / Que a % Reactivity / Amb p % Reactivity / Lol p % Reactivity / Ole e % Reactivity / Phl p % Reactivity / Pla l % Reactivity: reactivity of extract as percentage of reactivity to the peptide, PBMCs expanded 14 days with the peptide; for Bet v % Reactivity: Bet v (tree) pollen extract; for Cyn d % Reactivity: Cyn d (grass) pollen extract; for Poa p % Reactivity: Poa p (grass) pollen extract; for Que a % Reactivity: Que a (tree) pollen extract; for Controls, Irrelevant Pool: control: response to irrelevant pool of cells expanded with the peptide; for Amb p % Reactivity: Amb p (weed) pollen extract; for Lol p % Reactivity: Lol p (grass) pollen extract; for Ole e % Reactivity: Ole e (tree) pollen extract; for Phl p % Reactivity: Phl p (grass) pollen extract; for Pla l % Reactivity: Pla l (weed) pollen extract; for Controls, Relevant Pool: control: response to relevant pool of cells expanded with the peptide; for % Reactivity, Fra e: reactivity of Fra e (tree) pollen extract as percentage of the reactivity to the peptide, cells expanded with the peptide for 14 days
Method: For each peptide, TG allergic donors were selected that reacted to the peptide after expanding PBMCs in vitro with TG extract. […] Reponses to extracts and peptide pools are expressed as the relative fraction of the response to the peptide itself, and capped at 100%.
Each peptide was used to stimulate cells and cross reactivity was tested for extracts from each pollen species. The number of mismatches (# of mm) for each peptide compared to the pollen species and the reactivity of the extracts as a percentage of the reactivity compared to the peptide are shown.
PBMCs from Phl p reactive donors were expanded with individual PG+ peptides as well as peptides derived from major allergens of Phl p for 14 days (peptides shown in Table 10). For each peptide, the mismatch to a corresponding sequence in a non-grass pollen species or a pollen species other than Phl p were determined. Cytokine IL-5 responses were measured in response to the peptide itself, Phl p extract and extracts of the other pollen species. Reponses to extracts and peptide pools were expressed as the relative fraction of the response to the peptide itself and plotted as a function of conservation of the peptide in the different extracts (FIG. 1).

83 (LNTEEFIDAVAAELQ) [compound 83]
NTGA's containing at least one T cell epitope, Th+ (Col 2) ([1]; NTGA number given = criterion met, TG allergic donors n=20): 83 | No of PG+ & th+ peptides per NTGA ([1]; Table 6, PG+ peptides recognized by T cells of grass allergic donors (n=20)): 11 | No of PP & Th+ peptides per NTGA ([1]; Table 6, PP peptides recognized by T cells of grass allergic donors (n=20)): 4 | # Th+ ([1]; Table 7, peptides per NTGA recognized by T cells of grass allergic donors (n=20)): 0

FPIVQRFLEGASSID
Ant o % Reactivity [2]: 89% and 100% | Bet v % Reactivity [2]: 5% and 0% | Cyn d % Reactivity [2]: 22% and 39% | Poa p % Reactivity [2]: 95% and 100% | Que a % Reactivity [2]: 0% | Controls, Irrelevant Pool [2]: 100

NPMTVFWSKMAQSMT
Amb p % Reactivity [2]: 0% | Ant o % Reactivity [2]: 0% | Bet v % Reactivity [2]: 0% | Cyn d % Reactivity [2]: 1% | Lol p % Reactivity [2]: 1% | Ole e % Reactivity [2]: 0% | Phl p % Reactivity [2]: 0% | Pla l % Reactivity [2]: 0% | Poa p % Reactivity [2]: 0% | Que a % Reactivity [2]: 0% | Controls, Irrelevant Pool [2]: 1 | Controls, Relevant Pool [2]: 79 | % Reactivity, Fra e [2]: 0%

IGSFFYFPSIGMQRT
Amb p % Reactivity [2]: 0% | Ant o % Reactivity [2]: 3% | Bet v % Reactivity [2]: 2% | Cyn d % Reactivity [2]: 9% | Lol p % Reactivity [2]: 6% | Ole e % Reactivity [2]: 1% | Phl p % Reactivity [2]: 0% | Pla l % Reactivity [2]: 2% | Poa p % Reactivity [2]: 2% | Que a % Reactivity [2]: 1% | Controls, Irrelevant Pool [2]: 1 | Controls, Relevant Pool [2]: 63 | % Reactivity, Fra e [2]: 1%

EEWEPLTKKGNVWEV
Amb p % Reactivity [2]: 49% | Ant o % Reactivity [2]: 100% | Bet v % Reactivity [2]: 3% | Cyn d % Reactivity [2]: 7% | Lol p % Reactivity [2]: 100% | Ole e % Reactivity [2]: 13% | Phl p % Reactivity [2]: 100% | Pla l % Reactivity [2]: 23% | Poa p % Reactivity [2]: 100% | Que a % Reactivity [2]: 1% | Controls, Irrelevant Pool [2]: 32 | Controls, Relevant Pool [2]: 100 | % Reactivity, Fra e [2]: 76%

MRNVFDDVVPADFKV
Bet v % Reactivity [2]: 2% and 3% and 1% and 0% | Lol p % Reactivity [2]: 88% and 82% and 73% and 72% and 100% | Controls, Relevant Pool [2]: 81 and 94 and 98 and 100

DIYNYMEPYVSKVDP
Amb p % Reactivity [2]: 37% | Bet v % Reactivity [2]: 0% | Cyn d % Reactivity [2]: 83% | Lol p % Reactivity [2]: 100% | Ole e % Reactivity [2]: 82% | Phl p % Reactivity [2]: 30% | Pla l % Reactivity [2]: 17% | Poa p % Reactivity [2]: 23% | Que a % Reactivity [2]: 0% | Controls, Irrelevant Pool [2]: 49 | Controls, Relevant Pool [2]: 100 | % Reactivity, Fra e [2]: 49%

NAGFKAAVAAAAVVP
Controls, Relevant Pool [2]: 77 and 100

NLALSIKYNKEGDSM
Amb p % Reactivity [2]: 76% | Ant o % Reactivity [2]: 0% | Bet v % Reactivity [2]: 0% | Cyn d % Reactivity [2]: 76% | Lol p % Reactivity [2]: 76% | Ole e % Reactivity [2]: 78% | Phl p % Reactivity [2]: 57% | Pla l % Reactivity [2]: 41% | Poa p % Reactivity [2]: 100% | Que a % Reactivity [2]: 0% | Controls, Irrelevant Pool [2]: 0 | Controls, Relevant Pool [2]: 100 | % Reactivity, Fra e [2]: 0%

STWYGKPTGAGPKDN
Ant o % Reactivity [2]: 51% and 64% | Bet v % Reactivity [2]: 0% | Lol p % Reactivity [2]: 64% and 40% | Que a % Reactivity [2]: 1% and 0% | % Reactivity, Fra e [2]: 1% and 0%

NVFDEVIPTAFTVGK
Bet v % Reactivity [2]: 2% and 0% | Cyn d % Reactivity [2]: 0% | Lol p % Reactivity [2]: 96% and 100% | Phl p % Reactivity [2]: 75% and 81% | Que a % Reactivity [2]: 0% | Controls, Irrelevant Pool [2]: 17 and 28 | Controls, Relevant Pool [2]: 100

FKAAVAAAAGAPPAD
Amb p % Reactivity [2]: 15% | Ant o % Reactivity [2]: 62% | Bet v % Reactivity [2]: 22% | Cyn d % Reactivity [2]: 31% | Lol p % Reactivity [2]: 68% | Ole e % Reactivity [2]: 39% | Phl p % Reactivity [2]: 2% | Pla l % Reactivity [2]: 2% | Poa p % Reactivity [2]: 26% | Que a % Reactivity [2]: 6% | Controls, Irrelevant Pool [2]: 23 | Controls, Relevant Pool [2]: 100 | % Reactivity, Fra e [2]: 38%

QYAKEIWGITANPVP
Amb p % Reactivity [2]: 83% | Ant o % Reactivity [2]: 2% | Bet v % Reactivity [2]: 73% | Cyn d % Reactivity [2]: 10% | Lol p % Reactivity [2]: 24% | Ole e % Reactivity [2]: 44% | Pla l % Reactivity [2]: 15% | Poa p % Reactivity [2]: 22% | Que a % Reactivity [2]: 32% | Controls, Irrelevant Pool [2]: 7 | Controls, Relevant Pool [2]: 100 | % Reactivity, Fra e [2]: 12%

SDAKTLVLNIKYTRP
Controls, Relevant Pool [2]: 88 and 100 and 81 and 80

DINVGFKAAVAAAAG
Bet v % Reactivity [2]: 0% and 2% | Pla l % Reactivity [2]: 0% and 3% and 10% | Que a % Reactivity [2]: 2% and 0% | Controls, Relevant Pool [2]: 53 and 100 and 95 | % Reactivity, Fra e [2]: 0% and 4% and 1%

NVWEVKSSKPLVGPF
Bet v % Reactivity [2]: 1% and 2% and 5% and 4% and 0% | Controls, Relevant Pool [2]: 100 and 68 and 94 | % Reactivity, Fra e [2]: 0%

GSDEKNLALSIKYNK
Amb p % Reactivity [2]: 5% | Ant o % Reactivity [2]: 58% | Bet v % Reactivity [2]: 0% | Cyn d % Reactivity [2]: 8% | Lol p % Reactivity [2]: 66% | Ole e % Reactivity [2]: 10% | Phl p % Reactivity [2]: 32% | Pla l % Reactivity [2]: 0% | Poa p % Reactivity [2]: 67% | Que a % Reactivity [2]: 0% | Controls, Irrelevant Pool [2]: 19 | Controls, Relevant Pool [2]: 87 | % Reactivity, Fra e [2]: 4%

LIEKINAGFKAAVAA
Bet v % Reactivity [2]: 0% and 9% | Cyn d % Reactivity [2]: 1% and 9% | Lol p % Reactivity [2]: 39% and 77% | Ole e % Reactivity [2]: 2% and 12% | Poa p % Reactivity [2]: 41% and 79% | Que a % Reactivity [2]: 0% and 3% | Controls, Irrelevant Pool [2]: 14 and 20 | Controls, Relevant Pool [2]: 83 and 90

GELELQFRRVKCKYP
Controls, Relevant Pool [2]: 88 and 53 and 92 and 100

LAKYKANWIEIMRIK
Ant o % Reactivity [2]: 14% | Cyn d % Reactivity [2]: 47% | Lol p % Reactivity [2]: 33% | Phl p % Reactivity [2]: 6% | Poa p % Reactivity [2]: 22% | Controls, Irrelevant Pool [2]: 19 | Controls, Relevant Pool [2]: 31 | % Reactivity, Fra e [2]: 14%

NGSQFFLCTAKTAWL
Bet v % Reactivity [2]: 1% | Ole e % Reactivity [2]: 4% and 5% | Pla l % Reactivity [2]: 1% and 2% | Controls, Relevant Pool [2]: 100 and 89 | % Reactivity, Fra e [2]: 3% and 0%

INVGFKAAVAAAASV
Bet v % Reactivity [2]: 1% and 0% | Pla l % Reactivity [2]: 0% and 9% | Que a % Reactivity [2]: 0% and 2% | Controls, Relevant Pool [2]: 100 and 70 and 60

DAYVATLTEALRVIA
Ant o % Reactivity [2]: 95% and 90% and 58% and 68% | Que a % Reactivity [2]: 10% and 8% and 0% | Controls, Relevant Pool [2]: 100 and 96 and 67

AVMLTFDNAGMWNVR
Amb p % Reactivity [2]: 2% | Ant o % Reactivity [2]: 9% | Bet v % Reactivity [2]: 0% | Cyn d % Reactivity [2]: 18% | Lol p % Reactivity [2]: 36% | Ole e % Reactivity [2]: 3% | Phl p % Reactivity [2]: 4% | Pla l % Reactivity [2]: 9% | Poa p % Reactivity [2]: 25% | Que a % Reactivity [2]: 0% | Controls, Irrelevant Pool [2]: 0 | Controls, Relevant Pool [2]: 100 | % Reactivity, Fra e [2]: 0%
